Patent US20090270450A1, “CHEMICAL COMPOUNDS” (ASTRAZENECA AB, priority 2006, published 2009)
Counter-ions that a name gives are not always drawn.

Legend:
[1] = target: T1, His-tagged kinase domain of CSF-1R (amino acids 568-912) (Homo sapiens, UniProt P07333); assay: Assay 1: CSF-1R in vitro AlphaScreen assay; assay type: biochemical; conditions: phosphorylation of biotinylated pEY substrate; 0.57 nM CSF-1R, 90 μM ATP
T1 construct: The His-tagged kinase domain of CSF-1R (i.e., amino acids 568-912, GeneBank ID NM_005211); His; made in house; host or cells: baculovirus infected SF+Express insect cells
T1 sequence (P07333 568-912): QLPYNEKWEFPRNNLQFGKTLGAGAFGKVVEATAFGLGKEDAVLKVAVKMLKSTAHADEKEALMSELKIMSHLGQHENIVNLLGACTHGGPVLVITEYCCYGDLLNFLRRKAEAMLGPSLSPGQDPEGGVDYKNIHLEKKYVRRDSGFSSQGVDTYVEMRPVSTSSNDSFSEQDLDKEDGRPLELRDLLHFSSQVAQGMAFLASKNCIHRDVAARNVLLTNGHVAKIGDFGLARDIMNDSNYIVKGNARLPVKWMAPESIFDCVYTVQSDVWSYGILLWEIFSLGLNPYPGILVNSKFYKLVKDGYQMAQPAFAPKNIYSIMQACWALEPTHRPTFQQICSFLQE
Protocol: Assay 1: CSF-1R in Vitro AlphaScreen Assay
Activity of purified CSF-1R was determined in vitro using an Amplified Luminescent Proximity Homogeneous Assay (ALPHA)(Perkin Elmer), which measures phosphorylation of the CSF-1R substrate, biotinylated poly-glutamine-tyrosine peptide (PEY-HTRF CisBio 61GT0BLD), as described below. The His-tagged kinase domain of CSF-1R (i.e., amino acids 568-912, GeneBank ID NM_005211; (see page 25 lines 13-19 of WO 2006/067445 for the sequence listing)) was purified from baculovirus infected SF+Express insect cells (1.4×10^6 cells/ml), French pressed and chromatographed through subsequent Qiagen Ni-NTA, Superflow Mono Q HR 10/10, and Superdex 200 SEC columns. Typical yield was 245 μg/l of cell pellet at >95% purity.
The phosphorylation of the CSF-1R substrate in the presence and absence of the compound of interest was determined. Briefly, 0.57 nM of purified CSF-1R, 5 nM pEY substrate, and compound were preincubated in 1× buffer for 30 minutes at 25° C. Reactions were initiated with addition of 90 μM adenosine triphosphate (ATP) in 1× buffer and incubated at 25° C. for 60 minutes and reactions stopped by addition of 5 μl of detection mix consisting of 136 mM NaCl, 102 mM ethylenediamine tetraacetic acid, 1.65 mg/ml BSA, 40 ug/ml Streptavidin donor beads (Perkin Elmer 6760002), 40 ug/ml pTyr100 acceptor beads (Perkin Elmer 6760620). Plates were incubated at 25° C. for 18 hours in the dark. Phosphorylated substrate was detected by an EnVision plate reader (Perkin Elmer) 680 nm excitation, 520-620 nm emission. Data was graphed and IC50s calculated using Excel Fit (Microsoft).

[2] = target: T1, His-tagged kinase domain of CSF-1R (amino acids 568-912); assay: Assay 2: CSF1R in-vitro AlphaScreen assay; assay type: biochemical; conditions: phosphorylation of biotinylated pEY substrate; 0.46 nM CSF-1R, 12 mM ATP mix
Protocol: Assay 2: CSF1R in-Vitro AlphaScreen Assay
Activity of purified CSF-1R was determined in-vitro using an Amplified Luminescent Proximity Homogeneous Assay (ALPHA) (Perkin Elmer, Mass.), which measures phosphorylation of CSF-1R substrate, biotinylated poly-glutamine-tyrosine peptide (pEY-HTRF CisBio 61GT0BLD), as described below. The His-tagged kinase domain of CSF-1R (i.e., amino acids 568-912, GeneBank ID NM_005211) was purified from baculovirus infected SF+Express insect cells (1.4×10^6 cells/ml), French pressed and chromatographed through subsequent QIAgen Ni-NTA, Superflow Mono Q HR 10/10, and Superdex 200 SEC columns. Typical yield was 322 ug/l of cell pellet at >95% purity. The phosphorylation of the CSF-1R substrate in the presence and absence of the compound of interest was determined. Briefly, 5 ul of Enzyme/Substrate/adenosine triphosphate (ATP) mix consisting of 0.46 nM of purified CSF-1R, 12 nM pEY substrate, and 12 mM ATP in 1.2× buffer was preincubated with 2 ul of compound for 20 minutes at 25° C. Reactions were initiated with 5 ul of Metal mix consisting of 24 mM MgCl2 in 1.2× buffer and incubated at 25° C. for 90 minutes and reactions were stopped by addition of 5 ul of Detection mix consisting of 20 mM HEPES, 102 mM ethylenediamine tetraacetic acid, 1.65 mg/ml BSA, 136 mM NaCl, 40 ug/ml Streptavidin donor beads (Perkin Elmer, Mass., Catalog #6760002), and 40 ug/ml phosphotyrosine-specific antibody coated acceptor beads (Perkin Elmer, Mass., Catalog #6760620). Plates were incubated at 25° C. for 18 hours in the dark. Phosphorylated substrate was detected by an EnVision plate reader (Perkin Elmer) 680 nm excitation, 520-620 nm emission. Data was graphed and IC50s calculated using Excel Fit (Microsoft). […] For example the following results were obtained in an assay substantially similar to one or other of the assays described hereinabove: […]

SMILES | IC50 [1] [nM] | IC50 [2] [nM]
CCOc1cc2ncc(C(N)=O)c(Nc3ccc(F)cc3F)c2cc1C1=CCNCC1 [Example 39, 4-[(2,4-Difluorophenyl)amino]-7-ethoxy-6-(1,2,3,6-tetrahydropyridin-4-yl)quinoline-3-carboxamide] | < 3 | 
CCOc1cc2ncc(C(N)=O)c(Nc3ccc(F)cc3F)c2cc1C1CCNCC1 [Example 40, 4-[(2,4-Difluorophenyl)amino]-7-ethoxy-6-piperidin-4-ylquinoline-3-carboxamide] | 7 | 
CCOc1cc2ncc(C(N)=O)c(Nc3ccc(F)cc3F)c2cc1C1=CCN(C(C)=O)CC1 [Example 41, 6-(1-Acetyl-1,2,3,6-tetrahydropyridin-4-yl)-4-[(2,4-difluorophenyl)amino]-7-ethoxyquinoline-3-carboxamide] | 14 | 
CCOc1cc2ncc(C(N)=O)c(Nc3ccc(C)cc3F)c2cc1C1CCN(C)CC1 [Example 42, 7-Ethoxy-4-[(2-fluoro-4-methylphenyl)amino]-6-(1-methylpiperidin-4-yl)quinoline-3-carboxamide] | 5 | 
CCOc1cc2ncc(C(N)=O)c(Nc3ccc(F)cc3F)c2cc1C1CCN(C)CC1 [Example 43, 4-[(2,4-Difluorophenyl)amino]-7-ethoxy-6-(1-methylpiperidin-4-yl)quinoline-3-carboxamide] | < 3.9 | 
CCOc1cc2ncc(C(N)=O)c(Nc3cccc(Cl)c3F)c2cc1C1CCN(C)CC1 [Example 44, 4-[(3-Chloro-2-fluorophenyl)amino]-7-ethoxy-6-(1-methylpiperidin-4-yl)quinoline-3-carboxamide] | < 3 | 
CCOc1cc2ncc(C(N)=O)c(Nc3cccc(Cl)c3Cl)c2cc1C1CCN(C)CC1 [Example 45, 4-[(2,3-Dichlorophenyl)amino]-7-ethoxy-6-(1-methylpiperidin-4-yl)quinoline-3-carboxamide] | < 3 | 
CCOc1cc2ncc(C(N)=O)c(Nc3ccc(F)cc3F)c2cc1C1CCN(C(C)C)CC1 [Example 46, 4-[(2,4-Difluorophenyl)amino]-7-ethoxy-6-(1-isopropylpiperidin-4-yl)quinoline-3-carboxamide] | 18 | 22
CCOc1cc2ncc(C(N)=O)c(Nc3ccc(C)cc3F)c2cc1C1CCN(C(C)C)CC1 [Example 47, 7-Ethoxy-4-[(2-fluoro-4-methylphenyl)amino]-6-(1-isopropylpiperidin-4-yl)quinoline-3-carboxamide] | 4 | 
CCOc1cc2ncc(C(N)=O)c(Nc3cc(C)ccc3F)c2cc1C1CCN(C(C)C)CC1 [Example 48, 7-Ethoxy-4-[(2-fluoro-5-methylphenyl)amino]-6-(1-isopropylpiperidin-4-yl)quinoline-3-carboxamide] | 3 | 
COc1cc2ncc(C(N)=O)c(Nc3ccc(C)cc3F)c2cc1C1CCN(C)CC1 [Example 49, 4-[(2-Fluoro-4-methylphenyl)amino]-7-methoxy-6-(1-methylpiperidin-4-yl)quinoline-3-carboxamide] | 7 | 
COc1cc2ncc(C(N)=O)c(Nc3cccc(Cl)c3F)c2cc1C1CCN(C)CC1 [Example 50, 4-[(3-Chloro-2-fluorophenyl)amino]-7-methoxy-6-(1-methylpiperidin-4-yl)quinoline-3-carboxamide] | 6 | 
COc1cc2ncc(C(N)=O)c(Nc3ccc(F)cc3F)c2cc1C1CCN(C)CC1 [Example 51, 4-[(2,4-Difluorophenyl)amino]-7-methoxy-6-(1-methylpiperidin-4-yl)quinoline-3-carboxamide] | 10 | 
COc1cc2ncc(C(N)=O)c(Nc3ccc(C)cc3F)c2cc1C1CCN(C(C)C)CC1 [Example 52, 4-[(2-Fluoro-4-methylphenyl)amino]-6-(1-isopropylpiperidin-4-yl)-7-methoxyquinoline-3-carboxamide] |  | 14
COc1cc2ncc(C(N)=O)c(Nc3ccc(F)cc3F)c2cc1C1CCN(C(C)C)CC1 [Example 53, 4-[(2,4-Difluorophenyl)amino]-6-(1-isopropylpiperidin-4-yl)-7-methoxyquinoline-3-carboxamide] |  | 32
COc1cc2ncc(C(N)=O)c(Nc3cccc(Cl)c3F)c2cc1C1CCN(C(C)C)CC1 [Example 54, 4-[(3-Chloro-2-fluorophenyl)amino]-6-(1-isopropylpiperidin-4-yl)-7-methoxyquinoline-3-carboxamide] |  | 8
COc1cc2ncc(C(N)=O)c(Nc3ccc(F)cc3F)c2cc1C1CCN(C(C)=O)CC1 [Example 55, 6-(1-Acetylpiperidin-4-yl)-4-[(2,4-difluorophenyl)amino]-7-methoxyquinoline-3-carboxamide] | 15 | 
CCOc1cc2ncc(C(N)=O)c(Nc3ccc(C)cc3F)c2cc1C1CCN(C(C)=O)CC1 [Example 56, 6-(1-Acetylpiperidin-4-yl)-7-ethoxy-4-[(2-fluoro-4-methylphenyl)amino]quinoline-3-carboxamide] |  | 30
CCOc1cc2ncc(C(N)=O)c(Nc3ccc(C)cc3F)c2cc1C1CCN(C(=O)CCOC)CC1 [Example 57, 7-Ethoxy-4-[(2-fluoro-4-methylphenyl)amino]-6-[1-(3-methoxypropanoyl)piperidin-4-yl]quinoline-3-carboxamide] |  | 71
CCOc1cc2ncc(C(N)=O)c(Nc3ccc(C)cc3F)c2cc1C1CCN(C(=O)[C@@H](C)O)CC1 [Example 58, 7-Ethoxy-4-[(2-fluoro-4-methylphenyl)amino]-6-{1-[(2R)-2-hydroxypropanoyl]piperidin-4-yl}quinoline-3-carboxamide] |  | 52
CCOc1cc2ncc(C(N)=O)c(Nc3ccc(F)cc3F)c2cc1-c1ccc(=O)[nH]c1 [Example 59, 4-[(2,4-Difluorophenyl)amino]-7-ethoxy-6-(6-oxo-1,6-dihydropyridin-3-yl)quinoline-3-carboxamide] | 7 | 
COc1cc2ncc(C(N)=O)c(Nc3ccc(C)cc3F)c2cc1C1CCN(CCO)CC1 [Example 60, 4-[(2-Fluoro-4-methylphenyl)amino]-6-[1-(2-hydroxyethyl)piperidin-4-yl]-7-methoxyquinoline-3-carboxamide hydrochloride] |  | 4
